Source: publication PMC3975428, “Dimers of G-Protein Coupled Receptors as Versatile Storage and Response Units” (International Journal of Molecular Sciences, 2014)

Legend:
[1] = tested on: 180 kDa heteropentamer and 90 kDa monomer-Gi α of Y2 receptor; details: 10 mM CHAPS, cited from earlier work
Source text: The stability and affinity of agonist association with CHO-Y2 receptors could also be analyzed at the level of dimers and monomers by extraction and precipitation procedures coupled to competition binding assays (Figure 6). […] The 180 kDa labeled material is not sensitive to ...

[2] = tested on: neuropeptide Y (NPY) receptor dimers; details: cited from earlier work
Source text: The most studied and probably the most frequent complexes of eukaryotic heptahelical receptors are those with G-protein αβγ heterotrimers. With many GPCR dimers these assemblies survive solubilization by steroid detergents such as digitonin and cholate and could be detected as ~180 kDa heteropentamers by density gradient centrifugation ([15, 16]; see also Figure 1 in this study) and also can be solubilized by acylamine oxide surfactants such as lauryldimethylamine oxide (LDAO) and detected by circular dichroism spectroscopy. The frequently used zwitterionic detergents, e.g., CHAPS (3 ...

[3] = tested on: Y2 receptor aggregates (rabbit kidney); assay: Y2 receptor aggregates, sedimentation after treatment, rabbit kidney particulates; type: biochemical; details: 15 min at 24 °C
Experimental: (§1) Figure 5. […] Particulates from rabbit kidney (A) and anterior hypothalamus (B) were incubated with 20 μM GγS or 10 μM U73122 for 15 min at 24 °C, sedimented, resuspended, labeled with 50 pM [^125I]hPYY(3–36) for 15 min at 24 °C, resedimented, lysed at 10 mM each digitonin and cholate and sedimented through a 10%–30% linear sucrose gradient for 6 h at 218,000× g and 5 °C, followed by gradient fractionation and counting. TEXT PRINTED IN THE PICTURE: (A) GγS: Bottom count: 10.8% | (A) U73122: Bottom count: 25.4% | (B) GγS: Bottom count: 8.98 % | (B) U73122: Bottom count: 17.4 %
(§2) Rabbit kidney postmitochondrial particulates, rabbit piriform cortex and hypothalamic crude synaptosomes and CHO cell postnuclear particulates were prepared as described previously. After solubilization of particulates at 10 mM each of digitonin and sodium cholate in buffer A or B, the lysates were spun for 10 min at 1000× g to remove debris, and the supernatants sedimented for periods indicated in figure captions at 218,000× gmax through linear 5%–20% sucrose gradients (10 mL, made in buffer A). The gradients were divided by bottom dripping in 23 fractions of 0.45 mL. The sedimentation positions were calibrated with [^125I]-labeled bovine γ-globulin (158 kDa), human iron-saturated transferrin (75 kDa) and ovalbumin (44 kDa), and with colorized myosin (211 kDa), producing a linear relation of migration to molecular weight (R^2 > 0.99).

[4] = tested on: Y2 receptor aggregates (anterior hypothalamus); assay: Y2 receptor aggregates, sedimentation after treatment, rabbit anterior hypothalamus particulates; type: biochemical; details: 20 μM, 15 min at 24 °C, 10%–30% gradient 6 h at 218,000× g
Experimental: as §1
as §2, with “The sedimentation positions were calibrated with [^125I]-labeled bovine γ-globulin (158 kDa), human iron-saturated transferrin (75 kDa) and ovalbumin (44 kDa), and with colorized myosin (211 kDa), producing a linear relation of migration to molecular weight (R^2 > 0.99).” left out

[5] = tested on: aggregated Y2 receptor material (rabbit kidney and CHO-Y2 particulates); assay: Release of aggregated Y2 receptor material (bottom of 5%–20% gradients); type: biochemical; details: 20 μM
Experimental: More than 30% of the Y2 binding in rabbit kidney postmitochondrial particulates, and more than 20% in the CHO-Y2 postnuclear particulates sediments to the bottom of 5%–20% sucrose gradients over 18 h at 218,000× gmax, corresponding to weight in excess of 1000 kDa. A large part of this material sediments at 30,000× gmax over 10 min, and could be considered as aggregated. […] This preliminary experiment points to potential of such procedures in quantitation of effector-associated receptors at the level of dimers and monomers. There also is a promise of gaining more insight on the size and significance of receptor oligomers incorporating more than two receptor monomers.
as §2

[6] = tested on: 180 kDa heteropentamer (Y2 receptor dimer, G-protein trimer); assay: Nucleotide labeling / conversion of 180 kDa heteropentamer to 90 kDa Gi3α-receptor monomer; type: biochemical
Experimental: (§3) The receptors were labeled for 30 min at 25 °C in respective particulates (50 μg protein/assay), employing not more than 50 pM [^125I]-labeled agonist peptides (as stated in individual experiments). Higher molar inputs of agonist peptides would produce significant Gα activation within short exposures (e.g., [24, 53]). The basal assay buffer contained 0.2% proteinase-free bovine serum albumin, 20 mM hepes.NaOH (pH 7.4), 1 mM diisopropylfluorophosphate, 0.04% bacitracin, and 10 μg/mL each of proteinase inhibitors aprotinin, bestatin, chymostatin, leupeptin and pepstatin. Depending on experiment design, this was supplemented by 3 mM CaCl2 and 1 mM MgCl2, (buffer A) or by 1 mM Na EDTA, pH 7.4 (buffer B). The nucleotide site labeling at 200 pM [^35S]GγS was for 30 min at 28 °C after pre-activation for 30 min at 28 °C at 3 μM GDP in the basal buffer with 50 μM EDTA, 100 mM NaCl and 4 mM MgCl2, and without CaCl2 (buffer C). All subsequent operations were carried out at 0–5 °C. The assays were terminated by sedimentation for 10 min at 30,000× gmax, followed by surface wash of the pellets.
as §2, with “0.99). […]” for “0.99).”

G-protein α subunit = assay: Stability of GγS labeling; type: biochemical; details: 4 °C
Experimental: as §3

Gi/o subunits = details: hypothalamic vs. rabbit kidney cortex; Table 2; cited from earlier work
Source text: (§4) Figure 2. Rundown of the Y2 agonist is much faster in tissues with large Gi/o content. […] The rabbit kidney cortex has a much lower expression of Gi/o subunits than the anterior hypothalamus (The Bmax for [^35S]GγS binding is more than 20-fold higher in hypothalamic tissue (ref. [24], Table 2). However, the kidney Y2 receptor is expressed at about four times the level of the hypothalamic. The above parameters in the Ca^2+/Mg^2 ...

[7] = tested on: Y2 receptor dimers (CHO cells); assay: Dimer content of Y2 receptors labeled by [^125I]PYY(3–36) in density gradients; type: binding, human receptor in CHO cells; details: duplicate gradients; for dimer content: labeled 30 min at 25 °C; for content of dimer: particulates from CHO cells, labeled 20 min at 27 °C
Experimental: Figure 1. Stability of agonist-labeled Y2 receptor dimers to incubation at 27 °C and to removal of divalent cations. Duplicate 5%–20% gradients (see Section 3.3) were centrifuged for 18 h at 5 °C. All results are average percentages of total counts in the corresponding gradient fractions from two gradients for each condition. The respective standard errors were in most cases below 10%, and for clarity are not shown. (A) Y2 receptor dimers in particulates from CHO cells are stable to incubation at 27 °C. The incubation of particulate suspension in the assay buffer at 27 °C was for 1 h (followed by 2 h at 0–4 °C) or 3 h, while the control suspension was incubated in ice for 3 h. […] The content of dimer, in % total gradient counts, was 66.2 ± 3.7 for 4 °C control, 63.4 ± 3.4 after preincubation for 1 h at 27 °C, and 64.3 ± 3.4 after preincubation for 3 h at 27 °C; (B) Y2 receptor dimers are not disbanded by removal of divalent cations.
as §3, with “Higher” for “The receptors were labeled for 30 min at 25 °C in respective particulates (50 μg protein/assay), employing not more than 50 pM [^125I]-labeled agonist peptides (as stated in individual experiments). Higher”
as §2

[8] = tested on: rabbit kidney Y2 receptor; assay: PYY(3–36) binding to rabbit kidney Y2 receptor (heteropentamer and monomer forms); details: rabbit kidney particulates, digitonin and cholate lysis
[9] = tested on: Y2 receptor (hypothalamic particulates); assay: Rundown of Y2 agonist tracer, anterior hypothalamus; type: biochemical, rabbit; details: 50 pM, 60 min at 25 °C, Ca^2+/Mg^2+ buffer
Source text: as §4, with “Ca^2+/Mg^2+ buffer lead to a much faster transduction with hypothalamic particulates (graph A); and a considerable (58%) rundown of the tracer peptide relative to 1 mM EDTA buffer. In the same assay, the relative rundown is only 12% with kidney particulates (graph B).” for “Ca^2+/Mg^2 ...”
as §3, with “The nucleotide site labeling at 200 pM [^35S]GγS was for 30 min at 28 °C after pre-activation for 30 min at 28 °C at 3 μM GDP in the basal buffer with 50 μM EDTA, 100 mM NaCl and 4 mM MgCl2, and without CaCl2 (buffer C). All subsequent operations were carried out at 0–5 °C. The assays were terminated by sedimentation for 10 min at 30,000× gmax, followed by surface wash of the pellets.” left out

[10] = tested on: Y2 receptor (rabbit kidney cortex particulates); assay: Rundown of Y2 agonist tracer, kidney cortex; type: biochemical; details: 50 pM, 60 min at 25 °C, Ca^2+/Mg^2+ buffer
Source text: as §4, with “Ca^2+/Mg^2+ buffer lead to a much faster transduction with hypothalamic particulates (graph A); and a considerable (58%) rundown of the tracer peptide relative to 1 mM EDTA buffer. In the same assay, the relative rundown is only 12% with kidney particulates (graph B).” for “Ca^2+/Mg^2 ...”
Higher molar inputs of agonist peptides would produce significant Gα activation within short exposures (e.g., [24, 53]). The basal assay buffer contained 0.2% proteinase-free bovine serum albumin, 20 mM hepes.NaOH (pH 7.4), 1 mM diisopropylfluorophosphate, 0.04% bacitracin, and 10 μg/mL each of proteinase inhibitors aprotinin, bestatin, chymostatin, leupeptin and pepstatin. Depending on experiment design, this was supplemented by 3 mM CaCl2 and 1 mM MgCl2, (buffer A) or by 1 mM Na EDTA, pH 7.4 (buffer B). […]

CHO-Y1 dimers = details: ADP-ribosylation of Gi type α subunits; cited from earlier work
Source text: (§5) This could be of interest in many physiological conditions. The loss of CHO-Y1 and CHO-Y2 dimers due to neutralization of Gi type α subunits through ADP-ribosylation by pertussis toxin [16, 29] could be viewed as a constitutive equivalent of the reduction shown in Figure 4. In conditions of normal Gi utilization in CHO-Y2, the di ...

CHO-Y2 dimers = details: ADP-ribosylation of Gi type α subunits; cited from earlier work
Source text: as §5

NPY receptor dimers = details: via ADP-ribosylation of Gαi subunits; cited from earlier work
Source text: The virtues of oligomerization for GPCRs are many. Oligomers would have much larger ability than monomers to anchor to the membranes, rafts and vesicles. Protein (including the receptor) removal by particulate (proteasomal and/or lysosomal) proteolysis is found to be much less for dimers compared to monomers, as is also observed for enzyme carriers. This is dramatically confirmed by elimination of NPY receptor dimers by pertussis toxin via ADP-ribosylation of Gαi subunits. Association with transducers and effectors could also be enhanced for the dimers. Chances ...

Molecule: C[C@H](CCC(=O)NCCC[N+](C)(C)CCCS(=O)(=O)[O-])[C@H]1CC[C@H]2[C@@H]3[C@H](O)C[C@@H]4C[C@H](O)CC[C@]4(C)[C@H]3C[C@H](O)[C@]12C [CHAPS, 3-[3-cholamidopropyldimethylammonio]-1-propanesulfonate]
- sensitivity of 180 kDa binding ([1]; relative to 90 kDa zone): much less sensitive
- effect on 90 kDa zone agonist binding [1]: completely dissociates
- effect on NPY receptor dimers [2]: tend to destabilize

Molecule: Nc1nc2c(ncn2[C@@H]2O[C@H](COP(=O)(O)OP(=O)(O)OP(O)(O)=S)[C@@H](O)[C@H]2O)c(=O)[nH]1 [GγS, Guanosine 5′-O-(γ-thiotriphosphate)]
- main form yielded from Y2 receptor aggregates ([3]; particulates from rabbit tissues (kidney and anterior hypothalamus), GγS 20 μM or U73122 10 μM): mainly Gi-Y2 monomer
- Bottom count ([3]; rabbit kidney, 20 μM, 10%–30% gradient 6 h at 218,000× g): 10.8%
- Bottom count [4]: 8.98%
- form of released material [5]: largely in the form of activated monomers
- part of aggregated material released [5]: A considerable part
- labeling of G-protein trimer in 180 kDa heteropentamer [6]: not labeled
- conversion of 180 kDa heteropentamer ([6]; 1–5 mM Mg^2+, micromolar GDP or GγS): does convert to immunoprecipitable 90 kDa Gi3α-receptor monomer
- stability of G-protein α subunit labeling (G-protein α subunit): stable at 4 °C

Molecule: Nc1nc2c(ncn2C2OC(COP(=O)(O)OP(=O)(O)OP(O)(O)=[35S])C(O)C2O)c(=O)[nH]1 (centres unmarked) [[^35S]GγS, [^35S]guanosine 5′-(γ-thio)triphosphate]
- Bmax for binding, hypothalamic relative to kidney tissue (Gi/o subunits): more than 20 fold

Molecule: [^125I]PYY(3–36): Monoiodinated HPLC-purified [^125I]human PYY(3–36), labeled Y2 agonist
- dimer content ([7]; buffer A (3 mM CaCl2, 1 mM MgCl2)): 65.9 ± 4.7 % gradient counts
- dimer content ([7]; buffer B (1 mM Na EDTA, divalent cations removed)): 60.8 ± 4.6 % gradient counts
- content of dimer ([7]; 4 °C control (3 h in ice)): 66.2 ± 3.7 % total gradient counts
- content of dimer ([7]; preincubation 1 h at 27 °C (then 2 h at 0–4 °C)): 63.4 ± 3.4 % total gradient counts
- content of dimer ([7]; preincubation 3 h at 27 °C): 64.3 ± 3.4 % total gradient counts
- degradation of the receptor-bound tracer [8]: very low
- rundown of the tracer peptide relative to 1 mM EDTA buffer [9]: 58%
- rundown of the tracer peptide relative to 1 mM EDTA buffer [10]: 12%

Molecule: pertussis toxin
- effect on CHO-Y1 dimers (CHO-Y1 dimers): loss
- effect on CHO-Y2 dimers (CHO-Y2 dimers): loss
- effect on NPY receptor dimers (NPY receptor dimers): elimination
